Reference: US20200085784A1, “METHODS TO TREAT FIBROSIS, NASH, AND NAFLD” (Minneamrita Therapeutics, LLC, priority 2018, published 2020)
Where a name gives a salt, the structure may show the parent alone.

Legend:
DIO-NASH mouse model = assay: Diet-induced obese (DIO) mouse model of non-alcoholic steatohepatitis (NASH); type: in vivo, C57BL/6JRj mice; settings: Minnelide 0.1 mg/kg PO QD, 8 weeks; compared to vehicle treated control DIO-NASH mice
Text: To investigate the effect of 8 weeks of treatment with Minnelide alone and in combination with Elafibranor or Liraglutide in DIO-NASH mouse model, metabolic parameters, hepatic pathology and NAFLD Activity Score (NAS) including Fibrosis Stage data were collected.
Male […] mice were obtained from Janvier Labs (Le Genest Saint Isle, France). Mice had ad libitum access to tap water and either regular rodent chow (Altromin 1324, Brogaarden, Hoersholm, Denmark), or a diet high in fat (40%, containing 18% trans-fat), 40% carbohydrates (20% fructose) and 2% cholesterol (AMLN diet; D09100301, Research Diets, New Brunswick, N.J.). C57BL/6JRj mice were fed regular chow as lean chow vehicle control group or AMLN diet as DIO-NASH mice for 35 weeks prior to treatment start.
All animals included in the drug treatment experiments underwent liver biopsy for baseline characterization of hepatic parameters and stratified randomization into treatment groups. Mice are anesthetized by inhalation anesthesia using isoflurane (2-3%). […] A stratified randomization into treatment groups is performed according to liver Collagen 1a1 quantification. […]
Biochemical and histological analyses were performed as reported previously (Tølbøl, et al. World J Gastroenterol. Jan. 14, 2018; 24(2): 179-194). […] Liver homogenates were analyzed for TG and TC. […]

[1] = test system: DEN+CCl4-induced liver fibrosis; assay: Mouse model of CCl4+Diethylnitrosamine (DEN)-induced liver injury; type: in vivo, C57Bl6/J mice; settings: for DEN+CCl4-induced collagen deposition (Massons Trichrome and Sirius red staining): Minnelide 0.2 mg/kg, compared to the vehicle
Description: Mouse model of CCl4+Diethylnitrosamine (DEN)-induced liver injury. C57Bl6/J mice (3 weeks of age; ˜15 g) received one single dose of DEN (25 mg/kg). From 8 weeks of age; (˜25 g) they receive twice a week during 4 weeks 250 μL i.p. of either olive oil or CCl4 at a dose of 0.2 ml/kg diluted in olive oil. Animals were treated with 0.2 mg/kg Minnelide after 4 weeks of CCl4.
(§1) For both models, injury and fibrosis were determined by examination of histological specimens by H&E staining as well as picrosirius red staining.

[2] = test system: CCl4-induced liver fibrosis; assay: Mouse model of carbon tetrachloride (CCl4) liver fibrosis; type: in vivo, C57Bl6/J mice
Description: Two animal models were used: Mouse model of Carbon tetrachloride (CCl4). In this model, C57Bl6/J mice (8 weeks of age; ˜25 g) received twice a week during 4 weeks 250 μL i.p. of either olive oil or CCl4 at a dose of 3.5 ml/kg diluted in olive oil. Animals were treated with 0.2 mg/kg Minnelide after 4 weeks of CCl4.
as §1

[3] = therapeutic intervention, DEN+CCl4 induced liver fibrosis
[4] = therapeutic intervention, CCl4 induced liver fibrosis

CC(C)[C@]12O[C@H]1[C@@H]1O[C@]13[C@]1(O[C@H]1C[C@H]1C4=C(CC[C@@]13C)C(=O)OC4)[C@@H]2OCOP(=O)(O)O [Minnelide, 14-O-phosphonooxymethyltriptolide disodium salt]
inhibited: DEN+CCl4-induced collagen deposition (Massons Trichrome and Sirius red staining) [1] | DEN+CCl4-induced collagen deposition (Massons Trichrome and Sirius red staining) ([1]; 12 week time point paragraph) | CCl4-induced collagen deposition (Massons Trichrome and Sirius red staining) ([2]; Minnelide 0.2 mg/kg, compared to the vehicle)
18.41%: reduction in liver Galectin-3 (% fractional area) (DIO-NASH mouse model)
decreased: expression of Tnf-α, IL6, IL-1β and iNOS (inflammation associated genes) ([1]; 8 week time point) | expression of inflammasome genes (NLRP3, apoptosis-associated speck-like protein containing a CARD, caspase1, IL-1β, IL18) ([1]; 8 week time point)
reduced: steatosis, ballooning, and inflammatory foci (liver H&E staining) ([1]; 12 week time point) | steatosis, ballooning, and inflammatory foci (liver H&E staining) ([1]; DEN+CCl4 administration, 8 week time point) | α-SMA expression (immunofluorescence staining) ([1]; DEN+CCl4 model) | steatosis, ballooning, and inflammatory foci (liver H&E staining) ([2]; CCl4 administration, 8 week time point) | α-SMA expression (immunofluorescence staining) ([2]; CCl4 model)
reduction: fibrosis [1, 3] | plasma biochemical markers [1, 3] | fibrosis [2, 4] | plasma biochemical markers [2, 4]
